# Experimental data published in patent US20240034737A1, “Heterocyclic Derivatives as P2X7 Receptor Antagonists” (BREYE THERAPEUTICS APS, priority 2020, published 2024).
# Assays:
# P2X7 receptor = P2X7 receptor (Homo sapiens (Human), UniProt Q99572); assay: Human P2X7 channel calcium-influx assay (Fluo-8 NW, FLIPR TETRA, Bz-ATP stimulation); assay type: cell-based; conditions: HEK-293 cells stably transfected with P2X7 receptor, Low Divalent Cation Assay Buffer, read-out: hP2X7 IC50
# How it was run: (§1)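 HEK-293 cells stably expressing human or mouse P2X7, preloaded with Fluo-8 NW dye for 1 h at RT. Compounds added, Bz-ATP-evoked Ca2+ influx followed as fluorescence kinetics over 5 min on FLIPR TETRA; A438079 served as reference antagonist.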
# mP2X7 = mP2X7 (Mus musculus (Mouse), UniProt Q9Z1M0); assay: mP2X7 channel calcium-influx assay (Fluo-8 NW, FLIPR TETRA, Bz-ATP stimulation); assay type: cell-based
# How it was run: as §1
# CYP4503A4 = CYP4503A4 metabolic induction (mRNA expression) in human cryopreserved platable hepatocytes; assay type: in vitro ADME; conditions: 10 μM test compound, two days treatment, mRNA by QuantiGene Plex 2.0
# Protocol: In Vitro Evaluation of Test Compounds for CYP4503A4 Metabolic Induction Using Human Liver Hepatocytes.
# CYP induction assessment was performed using human cryopreserved platable hepatocytes. Test compound was assessed at three or six different concentrations in duplicate.
# A sandwich culture of platable cryopreserved hepatocytes was used with one day recovery period after plating. Assessment of cell morphology and confluency was performed using a phase-contrast microscope for representative wells.
# The plated hepatocyte cell monolayers were treated with test compound, negative and positive controls for two days changing medium every 24 hours. On the fourth day, assessment of cell morphology and confluency was repeated to ensure cell monolayer integrity. Assessment of cell morphology and confluency was performed using a phase-contrast microscope for representative wells.
# Cell monolayers were assessed for test compound cytotoxicity by an adenosine triphosphate (ATP) content assay in a separate plate.
# Expression levels of mRNA for CYP1A2, CYP2B6, and CYP3A4 were evaluated by the QuantiGene® Plex 2.0 methodology.
# mP2X7, sequence (Q9Z1M0 whole entry): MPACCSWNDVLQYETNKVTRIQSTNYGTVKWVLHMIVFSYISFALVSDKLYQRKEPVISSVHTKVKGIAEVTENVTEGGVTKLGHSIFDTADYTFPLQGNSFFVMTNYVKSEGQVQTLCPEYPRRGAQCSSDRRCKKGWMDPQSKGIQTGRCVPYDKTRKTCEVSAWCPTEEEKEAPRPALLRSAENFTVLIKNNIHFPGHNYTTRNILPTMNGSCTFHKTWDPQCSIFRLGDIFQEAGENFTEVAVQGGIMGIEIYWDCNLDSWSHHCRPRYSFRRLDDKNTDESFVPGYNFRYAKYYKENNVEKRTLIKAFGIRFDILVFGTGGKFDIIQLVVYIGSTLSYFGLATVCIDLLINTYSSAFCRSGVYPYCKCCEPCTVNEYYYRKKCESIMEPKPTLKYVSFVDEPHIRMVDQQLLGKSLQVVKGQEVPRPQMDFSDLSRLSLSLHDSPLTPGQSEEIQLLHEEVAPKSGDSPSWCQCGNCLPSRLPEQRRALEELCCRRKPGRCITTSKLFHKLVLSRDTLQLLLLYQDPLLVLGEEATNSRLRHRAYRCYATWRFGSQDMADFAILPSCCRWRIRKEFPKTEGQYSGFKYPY
# P2X7 receptor, sequence (Q99572 whole entry): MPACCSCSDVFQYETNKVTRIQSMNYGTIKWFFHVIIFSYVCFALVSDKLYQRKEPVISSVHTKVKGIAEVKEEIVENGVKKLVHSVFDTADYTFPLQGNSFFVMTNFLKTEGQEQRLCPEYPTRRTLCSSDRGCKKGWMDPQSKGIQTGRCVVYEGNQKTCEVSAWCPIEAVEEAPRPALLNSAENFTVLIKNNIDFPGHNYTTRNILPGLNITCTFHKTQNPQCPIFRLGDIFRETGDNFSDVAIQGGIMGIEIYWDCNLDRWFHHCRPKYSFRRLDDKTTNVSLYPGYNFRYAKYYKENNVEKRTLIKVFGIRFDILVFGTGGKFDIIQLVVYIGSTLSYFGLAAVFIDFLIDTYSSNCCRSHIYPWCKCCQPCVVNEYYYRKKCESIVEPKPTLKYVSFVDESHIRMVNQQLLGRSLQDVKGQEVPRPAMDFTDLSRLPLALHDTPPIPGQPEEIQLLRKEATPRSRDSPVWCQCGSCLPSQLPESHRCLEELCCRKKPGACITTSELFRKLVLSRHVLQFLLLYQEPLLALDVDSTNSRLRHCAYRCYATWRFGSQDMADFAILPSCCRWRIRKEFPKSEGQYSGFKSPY
SMILES,IC50 (P2X7 receptor) [µM],IC50 (mP2X7) [µM],CYP4503A4 mRNA fold increase at 10 μM (CYP4503A4) [fold]
"O=C(NCC(c1scnc1C(F)F)N1CCC(Oc2cccnc2)CC1)c1c(F)cccc1Cl (stereo not shown) [Example 2, 2-chloro-N-{2-[4-(difluoromethyl)-1,3-thiazol-5-yl]-2-[4-(pyridin-3-yloxy)piperidin-1-yl]ethyl}-6-fluorobenzamide]",0.0359,0.0369,4.8
"O=C(NCC(c1scnc1C(F)F)N1CCC(Oc2ccncc2)CC1)c1c(F)cccc1Cl (stereo not shown) [Example 3, 2-chloro-N-{2-[4-(difluoromethyl)-1,3-thiazol-5-yl]-2-[4-(pyridin-4-yloxy)piperidin-1-yl]ethyl}-6-fluorobenzamide]",0.0377,0.0808,4.4
"O=C(NCC(c1scnc1C(F)F)N1CCC(Oc2cncc(F)c2)CC1)c1c(F)cccc1Cl (stereo not shown) [Example 5, 2-chloro-N-{2-[4-(difluoromethyl)-1,3-thiazol-5-yl]-2-{4-[(5-fluoropyridin-3-yl)oxy]piperidin-1-yl}ethyl}-6-fluorobenzamide]",0.0237,0.0269,5.0
"O=C(NCC(c1scnc1C(F)F)N1CCC(Oc2ncccc2F)CC1)c1c(F)cccc1Cl (stereo not shown) [Example 7, 2-chloro-N-{2-[4-(difluoromethyl)-1,3-thiazol-5-yl]-2-{4-[(3-fluoropyridin-2-yl)oxy]piperidin-1-yl}ethyl}-6-fluorobenzamide]",0.0326,0.0289,5.6
"Cc1cc(COC2CCN(C(CNC(=O)c3c(F)cccc3Cl)c3scnc3C(F)F)CC2)no1 (stereo not shown) [Example 8, 2-chloro-N-{2-[4-(difluoromethyl)-1,3-thiazol-5-yl]-2-{4-[(5-methyl-1,2-oxazol-3-yl)methoxy]piperidin-1-yl}ethyl}-6-fluorobenzamide]",0.0478,0.17,2.2
"Cc1noc(C)c1COC1CCN(C(CNC(=O)c2c(F)cccc2Cl)c2scnc2C(F)F)CC1 (stereo not shown) [Example 9, 2-chloro-N-{2-[4-(difluoromethyl)-1,3-thiazol-5-yl]-2-{4-[(dimethyl-1,2-oxazol-4-yl)methoxy]piperidin-1-yl}ethyl}-6-fluorobenzamide]",0.064,0.0539,2.6
"Cc1nsc(OC2CCN(C(CNC(=O)c3c(F)cccc3Cl)c3scnc3C(F)F)CC2)n1 (stereo not shown) [Example 11, 2-Chloro-N-{2-[4-(difluoromethyl)-1,3-thiazol-5-yl]-2-{4-[(3-methyl-1,2,4-thiadiazol-5-yl)oxy]piperidin-1-yl}ethyl}-6-fluorobenzamide]",0.0505,0.183,7.9
"O=C(NCC(c1scnc1C(F)F)N1CCC(Oc2nc(C3CC3)ns2)CC1)c1c(F)cccc1Cl (stereo not shown) [Example 13, 2-Chloro-N-(2-{4-[(3-cyclopropyl-1,2,4-thiadiazol-5-yl)oxy]piperidin-1-yl}-2-[4-(difluoromethyl)-1,3-thiazol-5-yl]ethyl)-6-fluorobenzamide]",0.0192,0.0334,9.7
"O=C(NCC(c1scnc1C(F)F)N1CCC(Oc2ccc(F)nn2)CC1)c1c(F)cccc1Cl (stereo not shown) [Example 32, 2-Chloro-N-{2-[4-(difluoromethyl)-1,3-thiazol-5-yl]-2-{4-[(6-fluoropyridazin-3-yl)oxy]piperidin-1-yl}ethyl}-6-fluorobenzamide]",0.0213,0.082,6.0
O=C(NCC(c1scnc1C(F)F)N1CCC(Oc2cncc3nncn23)CC1)c1c(F)cccc1Cl (stereo not shown) [Example 45],0.254,0.55,1.9
"O=C(NCC(c1scnc1C(F)F)N1CCC(Oc2nccn3cnnc23)CC1)c1c(F)cccc1Cl (stereo not shown) [Example 46, 2-Chloro-N-{2-[4-(difluoromethyl)-1,3-thiazol-5-yl]-2-(4-{[1,2,4]triazolo[4,3-a]pyrazin-8-yloxy}piperidin-1-yl)ethyl}-6-fluorobenzamide]",0.264,0.658,4.5
"O=C(NCC(c1scnc1C(F)F)N1CCC(Oc2ccnc3cccnc23)CC1)c1c(F)cccc1Cl (stereo not shown) [Example 48, 2-Chloro-N-{2-[4-(difluoromethyl)-1,3-thiazol-5-yl]-2-[4-(1,5-naphthyridin-4-yloxy)piperidin-1-yl]ethyl}-6-fluorobenzamide]",0.0749,0.036,7.6
"COc1cc(OC2CCN(C(CNC(=O)c3c(F)cccc3Cl)c3scnc3C(F)F)CC2)ncn1 (stereo not shown) [Example 65, 2-Chloro-N-{2-[4-(difluoromethyl)-1,3-thiazol-5-yl]-2-{4-[(6-methoxypyrimidin-4-yl)oxy]piperidin-1-yl}ethyl}-6-fluorobenzamide]",0.0562,0.0962,4.9
"Cc1cc(OC2CCN(C(CNC(=O)c3c(F)cccc3Cl)c3scnc3C(F)F)CC2)ccn1 (stereo not shown) [Example 73, 2-Chloro-N-{2-[4-(difluoromethyl)-1,3-thiazol-5-yl]-2-{4-[(2-methylpyridin-4-yl)oxy]piperidin-1-yl}ethyl}-6-fluorobenzamide]",0.0649,0.0709,2.4
"O=C(NCC(c1scnc1C(F)F)N1CCC(Oc2nccc(Cl)n2)CC1)c1c(F)cccc1Cl (stereo not shown) [Example 75, 2-chloro-N-(2-{4-[(4-chloropyrimidin-2-yl)oxy]piperidin-1-yl}-2-[4-(difluoromethyl)-1,3-thiazol-5-yl]ethyl)-6-fluorobenzamide]",0.0538,0.0821,2.2
"O=C(NCC(c1scnc1C(F)F)N1CCC(Oc2cncc(Cl)n2)CC1)c1c(F)cccc1Cl (stereo not shown) [Example 76, 2-Chloro-N-(2-{4-[(6-chloropyrazin-2-yl)oxy]piperidin-1-yl}-2-[4-(difluoromethyl)-1,3-thiazol-5-yl]ethyl)-6-fluorobenzamide]",0.0437,0.0289,5.1

# The remaining lines, values ahead:
IC50 (P2X7 receptor) [µM],IC50 (mP2X7) [µM],CYP4503A4 mRNA fold increase at 10 μM (CYP4503A4) [fold],SMILES
0.0731,0.18,3.6,"O=C(NCC(c1scnc1C(F)F)N1CCC(Oc2ccncn2)CC1)c1c(F)cccc1Cl (stereo not shown) [Example 78, 2-Chloro-N-{2-[4-(difluoromethyl)-1,3-thiazol-5-yl]-2-[4-(pyrimidin-4-yloxy)piperidin-1-yl]ethyl}-6-fluorobenzamide]"
0.0203,0.0369,6.0,"O=C(NCC(c1scnc1C(F)F)N1CCC(Oc2ccnc(F)c2)CC1)c1c(F)cccc1Cl (stereo not shown) [Example 80, 2-Chloro-N-{2-[4-(difluoromethyl)-1,3-thiazol-5-yl]-2-{4-[(2-fluoropyridin-4-yl)oxy]piperidin-1-yl}ethyl}-6-fluorobenzamide]"
0.0201,0.0381,4.8,"O=C(NCC(c1scnc1C(F)F)N1CCC(Oc2cc(F)ccn2)CC1)c1c(F)cccc1Cl (stereo not shown) [Example 81, 2-chloro-N-{2-[4-(difluoromethyl)-1,3-thiazol-5-yl]-2-{4-[(4-fluoropyridin-2-yl)oxy]piperidin-1-yl}ethyl}-6-fluorobenzamide]"
0.0482,0.0358,,"O=C(NCC(c1scnc1C(F)F)N1CCC(COc2ccn3nccc3n2)CC1)c1c(F)cccc1Cl (stereo not shown) [Example 117, 2-Chloro-N-{2-[4-(difluoromethyl)-1,3-thiazol-5-yl]-2-[4-({pyrazolo[1,5-a]pyrimidin-5-yloxy}methyl)piperidin-1-yl]ethyl}-6-fluorobenzamide]"
0.214,0.256,,"O=C(NCC(c1scnc1C(F)F)N1CCC(COc2cncc3nncn23)CC1)c1c(F)cccc1Cl (stereo not shown) [Example 118, 2-Chloro-N-{2-[4-(difluoromethyl)-1,3-thiazol-5-yl]-2-[4-({[1,2,4]triazolo[4,3-a]pyrazin-5-yloxy}methyl)piperidin-1-yl]ethyl}-6-fluorobenzamide]"
0.0325,0.0164,,"O=C(NCC(c1scnc1C(F)F)N1CCC(COc2ncccc2Cl)CC1)c1c(F)cccc1Cl (stereo not shown) [Example 120, 2-Chloro-N-[2-(4-{[(3-chloropyridin-2-yl)oxy]methyl}piperidin-1-yl)-2-[4-(difluoromethyl)-1,3-thiazol-5-yl]ethyl]-6-fluorobenzamide]"
0.0396,0.0442,,"N#Cc1cnccc1OCC1CCN(C(CNC(=O)c2c(F)cccc2Cl)c2scnc2C(F)F)CC1 (stereo not shown) [Example 122, 2-Chloro-N-[2-(4-{[(3-cyanopyridin-4-yl)oxy]methyl}piperidin-1-yl)-2-[4-(difluoromethyl)-1,3-thiazol-5-yl]ethyl]-6-fluorobenzamide]"
0.0365,0.0347,,"O=C(NCC(c1scnc1C(F)F)N1CCC(COc2cc(F)ccn2)CC1)c1c(F)cccc1Cl (stereo not shown) [Example 126, 2-chloro-N-{2-[4-(difluoromethyl)-1,3-thiazol-5-yl]-2-(4-{[(4-fluoropyridin-2-yl)oxy]methyl}piperidin-1-yl)ethyl}-6-fluorobenzamide]"
